Values of other authors as cited in patent EP3569066A1, “ECOLOGICAL FORMULA HAVING MULTIPLE ANTIMICROBIAL ACTION (BACTERICIDAL, FUNGICIDAL AND ANTI-VIRAL) BASED ON COMMERCIAL MOLECULES” (Arias Dipre, Juan José, priority 2017, dated 2018).
Like-named read-outs stand apart in the source and are kept apart here.

Conditions: 0.1N solution

O=C(O)CC(O)(CC(=O)O)C(=O)O [Ingredient 1, 2-HYDROXY-1, 2, 3 TRI[…]]
pH: 2.2 | pH (listed as E): 2.2 (0.1 N)
